The values below come from article doi:10.1101/2021.03.15.435551, “Discovery of SARS-CoV-2 papain-like protease inhibitors through a combination of high-throughput screening and FlipGFP-based reporter assay” (bioRxiv, 2021).

For experiment [1], the target named is T1, SARS-CoV-2 PL^pro (PL^pro; PL^pro-His) (Severe acute respiratory syndrome coronavirus 2, UniProt P0DTD1).
T1 construct: gene rep
The experiment is described as follows: FRET peptide cleavage assay. Conditions: Dabcyl-FTLRGG/APTKV-Edans substrate, 200 nM PLpro. Format: biochemical.

Another experiment deals with T2, SARS-CoV-2 M^pro (Severe acute respiratory syndrome coronavirus 2, UniProt P0DTD1).
T2 construct: gene rep
Briefly: Mpro FRET peptide assay. The format is biochemical. Conditions: pH 6.5; Dabcyl-KTSAVLQ/SGFRKME(Edans) substrate.

Experiment [2] addresses T3, SARS-CoV-2 PL^pro (pcDNA3.1 SARS2 PL^pro, FlipGFP assay) (Severe acute respiratory syndrome coronavirus 2, UniProt P0DTD1).
T3 construct: gene rep
Briefly: FlipGFP-PLpro reporter assay. Conditions: GFP/mCherry ratio, 48 h. Format: cell-based.

Usually IC50 stands for the concentration that inhibits the measured activity by half. The molecule `CC(c1cc(F)ccc1F)N(C)Cc1cc(O)ccc1Cl` (centres unmarked) [Jun9-29-5] yielded an IC50 in experiment [1] greater than 20000 nM. As to `CC(c1ccccc1Cl)N(C)Cc1cc(O)ccc1Cl` (centres unmarked) [Jun9-13-7], the “inhibition at up to 200 μM” value on SARS-CoV-2 M^pro was greater than 200 µM. In experiment [1], this molecule displayed an IC50 of 7290 ± 1030 nM. Take `C[C@H](c1ccc(Cl)cc1)N(C)Cc1cc(O)ccc1Cl` [Jun9-13-4]: the IC50 in experiment [1] is greater than 20000 nM.

The EC50 is the concentration at which the effect is half-maximal. In the case of Jun9-75-5, the EC50 in experiment [2] is greater than 60000 nM. In addition, in experiment [1], half-maximal inhibition (IC50) was put at 560 nM. As to `Cc1ccc(N)cc1CN(C)[C@H](C)c1cccc2ccccc12` [Jun9-53-2], the half-inhibitory concentration (IC50) in experiment [1] amounted to 890 nM. This lies in the sub-micromolar range. On the same count and under the same terms, the figure for `C[C@H](c1cccc2ccccc12)N(C)Cc1cccc2[nH]ccc12` [Jun9-75-4] is 620 nM.
